Test results: patent US20230097801A1, “METHODS OF INCREASING CELL PHAGOCYTOSIS” (National Health Research Institutes, priority 2021, published 2023)

Assays:
CD47 [1] = assay: Flow cytometry, anti-human CD47 CC2C6 antibody binding on DLD-1 cell surface; format: cell-based; conditions: for IC50: Colon Cancer (DLD-1 cells), 4 days treatment, read-out: IC50, inhibition of CC2C6 binding; for inhibition of binding of anti-human CD47 antibody CC2C6 (in words): DLD-1 cells
Protocol: (§1) Binding between CD47 and SIRPα was studied by measuring the level of CD47 binding using any suitable method. Flow cytometric analysis is useful to quantify the level of binding of CD47 to antibody CC2C6, which is then subjected to an immune-staining procedure using fluorochrome-conjugated secondary antibody followed by analysis of the immune-staining signal with a flow cytometry instrument to obtain the level of the CD47-CC2C6 binding. In another method, analysis of CD47 is performed using SIRPα-Fc formed from SIRPα fused with human IgG1, which is then subjected to an immune-staining procedure using fluorochrome-conjugated secondary antibody against human IgG1, followed by analysis of the immune-staining signal. SIRPα is expressed on the surface of a myeloid cell such as macrophage, monocyte, neutrophil, or dendritic cell. Alternatively, SIRPα is fused with human IgG1 to form a SIRPα-Fc recombinant protein. […] An anti-cancer agent (e.g., rituximab) can be used together with a compound of formula (I). Useful anti-cancer agents are described above including anti-PD-L1 antibodies, anti-CD20 antibodies, anti-HER2 antibodies, anti-EGFR antibodies, and anti-CD47 antibodies. Other suitable anti-cancer agents are chemotherapeutic agents such as doxorubicin, epirubicin, idarubicin, methotrexate, mitoxantrone, oxaliplatin, and cyclophosphamide.
Human colon cancer DLD-1 cells were obtained from NHRI IBPR HTS Lab, Taiwan. DLD-1 cells were maintained under the same conditions described immediately above.
(§2) Antibody conjugates and extracellular domain of SIRPα used to analyze cell surface CD47 binding include anti-human CD47 CC2C6, 2D3, recombinant human SIRPα/CD172a Fc chimer protein, and anti-human IgG Fc. To determine inhibition of CD47 binding, cancer cells were treated with compounds of formula (I) at various concentrations for 4 days. Thereafter, the cells were washed with PBS containing 0.5% BSA (FACS buffer) followed by incubation with fluorochrome-labeled antibodies to human CD47 (i.e., CC2C6 and 2D3) at 1:50 dilution in FACS buffer for 30 minutes at 4° C. Compounds of formula (I) produced a dose-dependent inhibition of anti-CD47 CC2C6 antibody that recognized CD47 and SIRPα binding site on the tumor cell surface including B-cell lymphoma Raji cells, colon cancer cells DLD-1, and ovarian cancer SK-OV-3 cells (see FIGS. 1A, 1B, and 1C, respectively).

CD47 [2] = assay: Flow cytometry, anti-human CD47 2D3 control antibody binding on Raji cell surface; format: cell-based; conditions: Raji cells
Protocol: as §2

CD47 [3] = assay: Flow cytometry, anti-human CD47 CC2C6 antibody binding on SK-OV-3 cell surface; format: cell-based; conditions: for IC50: Ovarian Cancer (SK-OV3 cells), 4 days treatment, read-out: IC50, inhibition of CC2C6 binding; for inhibition of binding of anti-human CD47 antibody CC2C6 (in words): SK-OV-3 cells
Protocol: as §1
SK-OV-3 cells were purchased from ATCC (Manassas, Va.). SK-OV-3 cells were maintained at 37° C. under 5% CO2 in McCoy's 5a medium (Gibco, ThermoFisher, Waltham, Mass.) with 10% fetal bovine serum (FBS) (Sigma-Aldrich, St Louis, Mo.), and 2 mM L-glutamine.
as §2

CD47 [4] = assay: Flow cytometry, anti-human CD47 CC2C6 antibody binding on Raji cell surface; format: cell-based; conditions: for IC50: B-cell Lymphoma (Raji cells), 4 days treatment, read-out: IC50, inhibition of CC2C6 binding; for inhibition of binding of anti-human CD47 antibody CC2C6 (in words): Raji cells
Protocol: as §1
Human B-cell lymphoma Raji cells were purchased from BCRC, Taiwan. Raji cells were maintained at 37° C. under 5% CO2 in RPMI-1640 medium (Hyclone, Marlborough, Mass.) supplemented with 10% fetal bovine serum (FBS) (SAFC, Sigma-Aldrich, St. Louis, Mo.) containing 2 mM L-glutamine (Hyclone, Marlborough, Mass.), 10 mM HEPES (Hyclone, Marlborough, Mass.) and 1 mM sodium pyruvate (Hyclone, Marlborough, Mass.).
as §2

Mouse pk profiles = format: in vivo; conditions: for clearance / Cmax / bioavailability / half-life: plasma; for bioavailability: PO (30 mg/kg) vs IV (2 mg/kg); for half-life: read-out: T1/2 (h) Plasma (converted)
[5] = system: human B-cell lymphoma Raji xenograft tumor; assay: Raji xenograft dose-dependent efficacy of Compound 34 with rituximab (6 weeks); format: in vivo, NOD/SCID mice; conditions: rituximab 10 mg/kg alone
Description: (§3) Human B-cell lymphoma Raji cells were used to evaluate the efficacy of Compound 34 and rituximab in treating cancer cells. Prior to injection into animals, the cancer cells were detected as free of Mycoplasma spp. NOD/SCID mice (BioLasco, Taiwan) were used for in vivo experiments due to their higher affinity of SIRPα to human CD47. The mice used in these studies were housed in Institutional Animal Care and Use Committees-approved facility at National Health Research Institutes in accordance with guidelines for the care and use of laboratory animals.
To evaluate dose-dependent anti-tumor efficacy of Compound 34 in combination with rituximab, mice were treated with vehicle control, rituximab, or rituximab in combination with Compound 34 for 6 weeks. A dosing vehicle for Compound 34 was prepared using 10% DMA: 40% PEG400: 50% (1% CMC) (v/v/v) and was dosed orally (p.o.) at 10 mg/kg, 30 mg/kg, and 100 mg/kg once a day, 5 days a week (Q.D.*5). Rituximab (Roche-Genentech, South San Francisco, Calif.) stock solution was diluted with PBS and dosed at 10 mg/kg twice a week (2QW) by intraperitoneal (i.p.) injection. Cancer growth was measured by volume with an electronic caliper. The volume was calculated as L×W^2/2, in which L is the length of the tumor and W is its width. Tumor size and animal body weight were measured once a week after cancer cell inoculation. Cancer response at the end of the study was calculated as tumor growth inhibition (TGI) using (1−T/C)*100, in which T is the mean tumor volume (mm^3) of the test group, and C is the mean tumor volume (mm^3) of the vehicle-treated group. The treatment response rate were classified into 4 categories: complete regression (CR), in which the tumor was undetectable at the end of study; partial regression (PR), in which the tumor volume was less than or equal to 30% of the initial tumor volume at the end of study; stable disease (SD), in which the tumor volume was between […] of the initial tumor volume at the end of study; progression disease (PD), in which the tumor volume was greater than 50% of the initial tumor volume at the end of study. An overall response rate (ORR) is calculated based on the CR and PR groups. […] When treated with Compound 34 (at 100 mg/kg) in combination with rituximab, 6 out of 10 mice (60%) fell under the CR group, and 1 out of 10 mice (10%) fell under the PR group. On the other hand, no animals had CR (0%) and only 2 out of 10 mice (20%) were PR by rituximab (at 10 mg/kg), resulting in 70% ORR by the combination treatment and 20% by antibody only.

[6] = system: human B-cell lymphoma Raji xenograft tumor; assay: Raji xenograft anti-tumor efficacy and survival study (3 weeks treatment); format: in vivo, NOD/SCID mice; conditions: Compound 34 100 mg/kg p.o. QD*5, rituximab 10 mg/kg i.p. 2QW
Description: as §3
One million Raji cells in culture medium and matrigel (1:1, v/v) were injected subcutaneously into the left flank region of the mice (n=7 to 10 animals per group). Treatments were initiated after randomization with inclusion of tumors at approximately 100 mm^3. A dosing vehicle for Compound 34 was prepared using 10% DMA: 40% PEG400: 50% (1% CMC) (v/v/v) and was dosed orally (p.o.) at 100 mg/kg once a day, 5 days a week (Q.D.*5). Rituximab (Roche-Genentech, South San Francisco, Calif.) stock solution was diluted with PBS and dosed at 10 mg/kg twice a week (2QW) by intraperitoneal (i.p.) injection.
To evaluate anti-tumor efficacy and survival rates, mice were treated with vehicle control, 10 mg/kg rituximab (2QW, i.p.), 100 mg/kg Compound 34 (QD*5), or rituximab in combination with Compound 34. Treatment was discontinued at the end of 3 weeks. The mice were monitored for cancer growth and body weight once a week. Cancer growth was measured by volume with an electronic caliper. The volume was calculated as L×W^2/2, in which L is the length of the tumor and W is its width. Tumor size and animal body weight were measured once a week after cancer cell inoculation. Cancer response at the end of the study was calculated as tumor growth inhibition (TGI) using (1−T/C)*100, in which T is the mean tumor volume (mm^3) of the test group, and C is the mean tumor volume (mm^3) of the vehicle-treated group. […] For the survival study, treatment was discontinued at the end of 3 weeks. Thereafter, mice were followed up for tumor growth and body weight once a week. The mice were then sacrificed when tumor volume reached 2,000 mm^3 or body weight loss was greater than 10%. Kaplan-Meier plots were used as the study end point to calculate percentage of animals remaining in the study in term of the time. The median survival days for vehicle control and Compound 34 were 15.5 days and 18 days, respectively (FIG. 5E). Rituximab prolonged median survival days to 28 days after treatment discontinued (FIGS. 5C and 5E). Importantly, the combination of rituximab and Compound 34 further prolonged median survival days to 47 days (FIGS. 5D and 5E).

Row | IC50 (CD47 [1]) [nM] | IC50 (CD47 [3]) [nM] | IC50 (CD47 [4]) [nM] | AUC Plasma (Mouse pk profiles; IV (2 mg/kg)) [ng·h/g] | AUC Plasma (Mouse pk profiles; PO (30 mg/kg)) [ng·h/g] | clearance (Mouse pk profiles; IV (2 mg/kg)) [mL/min/kg] | Cmax (Mouse pk profiles; PO (30 mg/kg)) [ng/mL] | bioavailability (Mouse pk profiles) [%] | half-life (Mouse pk profiles; PO (30 mg/kg)) [h] | Molecule | inhibition of binding of anti-human CD47 antibody CC2C6 (in words) (CD47 [1]) | inhibition of binding of anti-human CD47 antibody 2D3 (in words) (CD47 [2]) | inhibition of binding of anti-human CD47 antibody CC2C6 (in words) (CD47 [3]) | inhibition of binding of anti-human CD47 antibody CC2C6 (in words) (CD47 [4]) | other results
1 | 790 | 200 | 1380 | 8185 | 68659 | 4 | 3720 | 56 | 12.7 | O=C1NC[C@H](c2ccc(-c3csc(C(F)(F)F)c3)cc2)N1c1ccc2[nH]cnc2c1 [Compound 32] | effectively inhibited | did not inhibit | effectively inhibited | effectively inhibited | –
2 | 1010 | – | 840 | 3037 | 21170 | 12.7 | 1780 | 47 | 5.2 | O=C1NC[C@H](c2ccc(-c3cnc(C(F)(F)F)s3)cc2)N1c1ccc2[nH]cnc2c1 [Compound 30] | effectively inhibited | did not inhibit | effectively inhibited | effectively inhibited | –
3 | 3190 | 150 | 5950 | 520 | 6359 | 64 | 2020 | 82 | 2.8 | CCCOc1ccc([C@H]2CNC(=O)N2c2ccc3[nH]cnc3c2)cc1 [PQ912, reference compound] | – | – | – | – | –
4 | – | – | – | – | – | – | – | – | – | Rituximab: an anti-human CD20 antibody (Roche-Genentech) | – | – | – | – | CR (complete regression), rate [5]: 0 (0%); ORR (overall response rate, CR and PR), rate [5]: 20%; PD (progression disease), rate [5]: 80%; PR (partial regression), rate [5]: 20%; CR (complete regression), number of mice ([5]; of 10 mice): 0 (0%); ORR (overall response rate, CR and PR), number of mice ([5]; of 10 mice): 2; PD (progression disease), number of mice ([5]; of 10 mice): 8; PR (partial regression), number of mice ([5]; of 10 mice): 2; CR (complete regression), rate ([5]; listed as rituximab): 0%; tumor growth inhibition (TGI, % of control) ([6]; 3 weeks): 78.5%; median survival days ([6]; treatment discontinued at 3 weeks): 28 days
